Results: patent US12655126B2, “Imidazole-pyrazole derivatives as antibacterials” (Hoffmann-La Roche Inc., priority 2020, dated 2026)
Counter-ions that a name gives are not always drawn.

Test system: Acinetobacter baumannii ATCC17961
Experiment: Antimicrobial susceptibility testing: 90% growth inhibitory concentration (IC90) determination
Format: cell-based
Details: Acinetobacter baumannii ATCC17961; Iso-Sensitest broth; growth by OD 600 nm over 16 h; 90% growth inhibitory concentration; read-out: ATCC 17961 IC90
Method in brief: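 Broth microdilution in Iso-Sensitest medium with twofold dilutions (e.g. 50 to 0.097 μM final) and inoculum ~5×10^(5) CFU/ml, 35±2 °C. OD600 was followed for 16 h; IC90 was derived from inhibition during logarithmic growth.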

IC90: 390 nM
Compound: CCNc1ccc(-n2cc(-c3cnc(C(=O)Nc4ccc(C(=O)N5CCN(C(=O)C6CC[N+](C)(C)CC6)CC5)c(Cl)c4)n3C)c(C(F)(F)F)n2)nc1 [Example E3, N-[3-chloro-4-[4-(1,1-dimethylpiperidin-1-ium-4-carbonyl)piperazine-1-carbonyl]phenyl]-5-[1-[5-(ethylamino)-2-pyridyl]-3-(trifluoromethyl)pyrazol-4-yl]-1-methyl-imidazole-2-carboxamide; formate]
